Test results published in US20060120956A1, “Imaging agents comprising barbituric acid derivatives” (priority 2002, published 2006).
Read-outs that look alike come from different tables or passages of the source.

How the values were obtained:
MMP-9 [1] = molecular target: T1, MMP-9 (Homo sapiens, UniProt P14780); assay: In vitro metalloproteinase inhibition assay, fluorogenic substrate (method of Huang et al.); type: biochemical; conditions: fluorogenic substrate 1 μM, MMP 1 nM, inhibitor 1000 pM-100 μM
Source text: In Vitro Metalloproteinase Inhibition Assay
Target sequence in this assay (P14780 94-707): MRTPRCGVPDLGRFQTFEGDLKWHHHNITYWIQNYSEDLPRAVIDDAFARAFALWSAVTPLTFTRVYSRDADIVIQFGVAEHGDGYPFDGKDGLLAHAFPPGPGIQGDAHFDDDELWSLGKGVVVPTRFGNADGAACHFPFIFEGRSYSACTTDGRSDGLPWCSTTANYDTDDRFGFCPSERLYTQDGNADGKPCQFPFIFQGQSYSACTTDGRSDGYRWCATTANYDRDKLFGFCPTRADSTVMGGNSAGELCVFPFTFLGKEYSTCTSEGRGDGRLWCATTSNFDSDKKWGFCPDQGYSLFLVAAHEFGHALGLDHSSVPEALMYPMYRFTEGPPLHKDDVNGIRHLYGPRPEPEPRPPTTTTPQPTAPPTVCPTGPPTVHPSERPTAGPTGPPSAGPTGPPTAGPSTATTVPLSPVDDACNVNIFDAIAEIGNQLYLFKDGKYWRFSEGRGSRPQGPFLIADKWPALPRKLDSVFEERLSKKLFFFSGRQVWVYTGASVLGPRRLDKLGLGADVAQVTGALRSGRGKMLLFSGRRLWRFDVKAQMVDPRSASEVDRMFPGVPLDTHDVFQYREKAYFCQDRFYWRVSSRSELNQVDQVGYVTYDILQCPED

MMP-2 [2] = molecular target: T2, MMP-2 (Homo sapiens, UniProt P08253); conditions: read-out: MMP-2 IC50; fluorogenic substrate 1 μM, MMP 1 nM, inhibitor 1000 pM-100 μM
T2 sequence (P08253 110-660): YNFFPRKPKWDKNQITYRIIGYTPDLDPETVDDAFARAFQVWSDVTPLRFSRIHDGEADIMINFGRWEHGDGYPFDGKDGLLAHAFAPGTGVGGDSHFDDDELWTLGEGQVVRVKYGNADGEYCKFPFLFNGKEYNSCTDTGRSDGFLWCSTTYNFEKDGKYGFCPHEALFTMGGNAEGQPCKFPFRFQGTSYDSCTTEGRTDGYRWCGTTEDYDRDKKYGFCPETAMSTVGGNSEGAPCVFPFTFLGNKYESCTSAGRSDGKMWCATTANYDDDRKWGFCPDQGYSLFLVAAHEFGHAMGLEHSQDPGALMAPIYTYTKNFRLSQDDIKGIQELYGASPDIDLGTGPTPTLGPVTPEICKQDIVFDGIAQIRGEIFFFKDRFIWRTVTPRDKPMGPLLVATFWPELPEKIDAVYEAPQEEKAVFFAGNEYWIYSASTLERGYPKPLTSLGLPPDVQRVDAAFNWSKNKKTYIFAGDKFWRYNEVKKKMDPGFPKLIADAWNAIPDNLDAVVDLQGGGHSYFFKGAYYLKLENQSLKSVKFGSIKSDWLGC

MMP-9 [3] = molecular target: T1, MMP-9; assay: Biomol MMP-9 colourimetric assay kit AK-410 (thiopeptolide substrate); type: biochemical
Protocol: (§1) Additional In Vitro Metalloproteinase Inhibition Assay
(§2) Compounds were screened using the following commercially available Biomol assay kits:
MMP-9 colourimetric assay kit—Catalogue number AK-410,
(§3) Which are available from Affiniti Research Products Ltd. (Palatine House, Matford Court, Exeter, EX2 8NL, UK).
(§4) (a) Test Compound Preparation.
(§5) Inhibitors were provided in powdered form, and stored at 4° C. For each inhibitor a 1 mM stock solution in DMSO was prepared, dispensed into 20 μl aliquots and these aliquots stored at −20° C. The stock solution was diluted to give 8 inhibitor concentrations (recommended: […], 5 μM, 500 nM, 50 nM, 5 nM, 500 pM, 50 pM and 5 pM). Dilutions were made in the kit assay buffer. A five-fold dilution of the inhibitor stocks is made on addition to the assay wells, therefore final concentration range is from 10 μM to 1 pM.
(§6) (b) Experimental Procedure.
(§7) Details are provided with the commercial kit, but can be summarised as follows:
(§8) Prepare test compound dilutions as above,
(§9) Add assay buffer to plate,
(§10) Add test compounds to plate
(§11) Prepare standard kit inhibitor NNGH (see kit for dilution factor)
(§12) Add NNGH to control inhibitor wells
(§13) Prepare MMP enzyme (see kit for dilution factor)
(§14) Incubate plate at 37° C. for ˜15 min
(§15) Prepare thiopeptolide substrate (see kit for dilution factor)
(§16) Count every 2 min for 1 hr, 37° C., 414 nm on a Labsystems iEMS plate reader.
Target sequence in this assay (P14780 107-444 limits assumed): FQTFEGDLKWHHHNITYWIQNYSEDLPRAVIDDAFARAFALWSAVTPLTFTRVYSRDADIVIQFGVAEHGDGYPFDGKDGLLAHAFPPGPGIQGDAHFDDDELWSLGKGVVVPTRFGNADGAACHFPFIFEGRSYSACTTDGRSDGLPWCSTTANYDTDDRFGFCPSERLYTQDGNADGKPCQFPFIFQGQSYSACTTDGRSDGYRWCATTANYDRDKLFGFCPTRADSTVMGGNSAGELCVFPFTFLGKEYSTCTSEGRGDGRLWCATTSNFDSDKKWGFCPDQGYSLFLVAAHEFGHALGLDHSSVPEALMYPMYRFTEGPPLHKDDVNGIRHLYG

MMP-2 [4] = molecular target: MMP-2 (Homo sapiens, UniProt P08253); assay: Biomol MMP-2 colourimetric assay kit AK-408 (thiopeptolide substrate); type: biochemical
Protocol: as §1, §2
MMP-2 colourimetric assay kit—Catalogue number AK-408,
as §3, §4, §5, §6, §7, §8, §9, §10, §11, §12, §13, §14, §15, §16

MMP-12 = MMP-12 (Homo sapiens, UniProt P39900); assay: Biomol MMP-12 colourimetric assay kit AK-402 (thiopeptolide substrate); type: biochemical
MMP-12, sequence (P39900 106-268 limits assumed): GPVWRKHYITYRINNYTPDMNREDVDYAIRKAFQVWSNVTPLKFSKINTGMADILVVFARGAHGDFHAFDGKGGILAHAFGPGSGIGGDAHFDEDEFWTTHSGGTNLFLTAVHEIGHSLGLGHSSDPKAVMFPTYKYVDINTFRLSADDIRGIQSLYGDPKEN
Protocol: as §1, §2
MMP-12 colourimetric assay kit—Catalogue number AK-402,
as §3, §4, §5, §6, §7, §8, §9, §10, §11, §12, §13, §14, §15, §16

For C[Si](C)(C)c1ccc(N2CCN(C3(c4ccc(Oc5ccc(Br)cc5)cc4)C(=O)NC(=O)NC3=O)CC2)cc1, the melting point was 205 to 210 °C.
Compound O=C1NC(=O)C(c2ccc(Oc3ccc(Br)cc3)cc2)(N2CCN(CCO)CC2)C(=O)N1 [Compound 2, 5-[4-(4-bromo-phenoxy)phenyl]-5-[4-(2-hydroxyethyl)piperazin-1-yl]-pyrimidine-2,4,6-trione, reference compound] has an IC50 (MMP-9 [1]) of 4 nM and an IC50 (MMP-2 [2]) of 9 nM.
COc1ccc(Oc2ccc(C3(N4CCN(CCO)CC4)C(=O)NC(=O)NC3=O)cc2)cc1 [Compound 3, 5-[4-(2-hydroxyethyl)piperazin-1-yl]-5-[4 (4-methoxy-phenoxy)phenyl]-pyrimidine-2,4,6-trione, reference compound] showed an IC50 (MMP-9 [1]) of 6 nM and an IC50 (MMP-2 [2]) of 9 nM.
In the case of O=C1NC(=O)C(c2ccc(Oc3ccc(I)cc3)cc2)(N2CCN(CCO)CC2)C(=O)N1 [Compound 4, 5-[4-(2-Hydroxyethyl)piperazin-1-yl]-5-[4-(4-iodo-phenoxy)phenyl]-pyrimidine-2,4,6-trione], the IC50 (MMP-9 [1]) is reported as 2 nM and the IC50 (MMP-2 [2]) is reported as 7 nM.
Work on O=C1NC(=O)C(c2ccc(Oc3ccc(Br)cc3)cc2)(N2CCN(CCCF)CC2)C(=O)N1 [Compound 7, 5-[4-(4-Bromophenoxy)phenyl]-5-[4-(3-fluoropropyl)-piperazin-1-yl)-pyrimidine-2,4,6-trione] yielded a Ki (MMP-9 [3]) of 2 nM and a Ki (MMP-2 [4]) of 11 nM.
Work on O=C1NC(=O)C(c2ccc(Oc3ccc(Br)cc3)cc2)(N2CCN(C(=O)CSCCCF)CC2)C(=O)N1 [Compound 9] yielded a Ki (MMP-9 [3]) of 0.3 nM, a Ki (MMP-12) of 11 nM and a Ki (MMP-2 [4]) of 5 nM.
For CC(=NO)C(C)(C)NCCC(CCNC(=O)CCN1CCN(C2(c3ccc(Oc4ccc(Br)cc4)cc3)C(=O)NC(=O)NC2=O)CC1)CCNC(C)(C)C(C)=NO (stereo not drawn) [Compound 16, 3-(4-{5-[4-(4-Bromophenoxy)-phenyl]-2,4,6-trioxohexahydropyrmidin-5-yl}-piperazin-1-yl)N-{5-(2-hydroxylimino-1,1-dimethylpropylamino)-3-[2-(2-hydroxylamino-1,1-dimethylpropylamino)-ethyl]-pentyl}-propionamide], the Ki (MMP-9 [3]) was 3 nM and the Ki (MMP-2 [4]) was 14 nM.
Work on CC(=NO)C(C)(C)NCCC(CCNC(=O)CCCC(=O)NCCN1CCN(C2(c3ccc(Oc4ccc(Br)cc4)cc3)C(=O)NC(=O)NC2=O)CC1)CCNC(C)(C)C(C)=NO (stereo not drawn) [Compound 17] yielded a Ki (MMP-9 [3]) of 10 nM, a Ki (MMP-12; colourimetric kit, thiopeptolide substrate, 37° C., 414 nm, read-out: MMP-12 (Ki)) of 157 nM and a Ki (MMP-2 [4]) of 29 nM.
Compound O=C1NC(=O)C(c2ccc(Oc3ccc(Br)cc3)cc2)(N2CCN(c3ccc(F)cc3)CC2)C(=O)N1 [Compound 20, 5-[4-(4-Bromo-phenoxy)phenyl]-5-[4-(4-fluorophenyl)piperazin-1-yl]-pyrimidine-2,4,6-trione] has an IC50 (MMP-9 [1]) of 19 nM and an IC50 (MMP-2 [2]) of 12 nM.
In the case of O=C1NC(=O)C(Nc2ccc(I)cc2)(c2ccc(Oc3ccc(Br)cc3)cc2)C(=O)N1 [Compound 24, 5-[4-(4-Bromophenoxy)-phenyl]-5-(4-iodophenylamino)-pyrimidine-2,4,6-trione], the Ki (MMP-9 [3]) is reported as 20 nM and the Ki (MMP-2 [4]) is reported as 45 nM.
